Measured values reported in US9481676B2, “Azepino[4,5-B]indoles and methods of use” (Medivation Technologies, Inc., priority 2008, dated 2016).

Assays:
[1] = target: T1, human recombinant histamine H1 receptor (Homo sapiens, UniProt P35367); assay: Histamine H1 radioligand binding ([3H]Pyrilamine); conditions: compound at 1 μM; read-out: Histamine Binding (1 μM) H1, percent inhibition of specific binding
T1 construct: expressed in transfected cells; host or cells: CHO cells
Summary of the method: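 Membranes from CHO cells expressing the receptor were incubated with compound and 1.2 nM [3H]pyrilamine for 180 min at 25 °C in 50 mM Tris-HCl pH 7.4 with MgCl2, NaCl and sucrose; 1 μM pyrilamine defined non-specific binding. Filter-bound radioactivity was counted.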

[2] = target: T2, human recombinant dopamine D2L receptor (Homo sapiens, UniProt P14416); assay: Dopamine D2L radioligand binding ([3H]Spiperone); conditions: compound at 1 μM; read-out: Dopamine (1 μM) D2L, percent inhibition of specific binding
T2 construct: expressed in transfected cells; host or cells: CHO cells
Summary of the method: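 Human recombinant D2L receptor from CHO cells, in Tris-HCl buffer pH 7.4 with ascorbic acid, BSA and 150 mM NaCl; compounds at 1 μM or lower (1% DMSO) incubated with 0.16 nM [3H]spiperone, 120 min, 25° C. Nonspecific binding by 10 μM haloperidol; filter counting; % inhibition of specific binding.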

[3] = target: T3, human recombinant serotonin (5-Hydroxytryptamine) 5-HT2C receptor (Homo sapiens, UniProt P28335); assay: Serotonin 5-HT2C radioligand binding ([3H]Mesulergine); conditions: compound at 1 μM; read-out: Serotonin (1 μM) 5-HT2C, percent inhibition of specific binding
T3 construct: expressed in transfected cells; host or cells: CHO-K1 cells
T3 sequence (P28335 33-458): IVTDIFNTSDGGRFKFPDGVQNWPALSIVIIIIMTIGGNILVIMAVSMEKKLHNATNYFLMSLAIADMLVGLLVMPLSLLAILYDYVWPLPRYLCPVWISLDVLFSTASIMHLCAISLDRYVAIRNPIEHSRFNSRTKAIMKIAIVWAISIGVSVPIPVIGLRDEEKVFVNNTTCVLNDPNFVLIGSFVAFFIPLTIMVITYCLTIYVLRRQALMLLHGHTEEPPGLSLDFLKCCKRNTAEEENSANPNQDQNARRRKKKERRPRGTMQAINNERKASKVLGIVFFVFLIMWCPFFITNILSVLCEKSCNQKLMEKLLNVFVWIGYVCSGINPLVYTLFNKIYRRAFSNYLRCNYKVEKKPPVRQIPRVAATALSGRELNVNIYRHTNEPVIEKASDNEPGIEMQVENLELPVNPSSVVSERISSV
Summary of the method: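 Membranes from CHO-K1 cells expressing human 5-HT2C, incubated with 1 nM [3H]mesulergine for 60 min at 25 °C in 50 mM Tris-HCl pH 7.4 with ascorbic acid and pargyline.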

[4] = target: T4, human recombinant adrenergic α2A receptor (Homo sapiens, UniProt P08913); assay: Adrenergic alpha2A radioligand binding ([3H]MK-912); conditions: compound at 1 μM; read-out: Adrenergic (1 μM) α2A, percent inhibition of specific binding
T4 construct: expressed in transfected cells; host or cells: insect Sf9 cells
T4 sequence (P08913 1-465): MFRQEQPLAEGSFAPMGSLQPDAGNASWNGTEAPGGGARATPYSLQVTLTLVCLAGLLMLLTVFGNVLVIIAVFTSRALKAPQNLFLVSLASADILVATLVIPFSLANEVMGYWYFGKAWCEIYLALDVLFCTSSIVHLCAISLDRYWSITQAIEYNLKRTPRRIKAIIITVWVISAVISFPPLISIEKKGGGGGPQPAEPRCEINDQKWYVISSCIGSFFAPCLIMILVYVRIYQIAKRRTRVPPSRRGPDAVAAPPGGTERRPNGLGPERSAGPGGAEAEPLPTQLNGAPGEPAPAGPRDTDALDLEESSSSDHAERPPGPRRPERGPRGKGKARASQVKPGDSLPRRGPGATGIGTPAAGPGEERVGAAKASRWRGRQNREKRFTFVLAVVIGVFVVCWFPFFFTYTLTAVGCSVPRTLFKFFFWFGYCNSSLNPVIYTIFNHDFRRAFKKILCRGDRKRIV
Procedure: To evaluate in radioligand binding assays the activity of compounds of the invention, human recombinant adrenergic α2A receptor expressed in insect Sf9 cells (Uhlen S et al. J Pharmacol Exp Ther. 271:1558, 1994) in a modified Tris-HCl buffer (50 mM Tris-HCl, pH 7.4, 12.5 mM MgCl2, 2 mM EDTA) was used. Compounds of invention were incubated with 1 nM [^3H]MK-912 for 60 min. at 25° C. MK912 is (2S-trans)-1,3,4,5′,6,6′,7,12b-octahydro-1′,3′-dimethyl-spiro[2 h-benzofuro [2,3-a]quinolizine-2,4′ (1′H)-pyrimidin]-2′ (3′H)-one hydrochloride Non-specific binding was estimated in the presence of 10 μM WB-4101 (2-(2,6-Dimethoxyphenoxyethyl)aminomethyl-1,4-benzodioxane hydrochloride). Receptor proteins were filtered and washed, the filters were then counted to determine [^3H]MK-912 specifically bound. Compounds were screened at 1 μM or lower, using 1% DMSO as vehicle. Biochemical assay results are presented as the percent inhibition of specific binding in Table 5.

T2 sequence (P14416 whole entry): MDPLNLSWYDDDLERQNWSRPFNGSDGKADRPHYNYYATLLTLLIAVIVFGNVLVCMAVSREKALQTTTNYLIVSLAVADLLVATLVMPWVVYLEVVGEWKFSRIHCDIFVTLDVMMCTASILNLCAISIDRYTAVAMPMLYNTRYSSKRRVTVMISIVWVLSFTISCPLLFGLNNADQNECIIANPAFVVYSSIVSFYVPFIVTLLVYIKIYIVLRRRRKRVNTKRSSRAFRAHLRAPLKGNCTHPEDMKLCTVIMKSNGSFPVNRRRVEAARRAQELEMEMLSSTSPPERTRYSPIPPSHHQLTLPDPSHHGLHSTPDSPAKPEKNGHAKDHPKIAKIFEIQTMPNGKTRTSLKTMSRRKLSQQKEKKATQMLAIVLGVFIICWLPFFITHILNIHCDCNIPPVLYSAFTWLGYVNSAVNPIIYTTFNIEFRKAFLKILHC
T1 sequence (P35367 whole entry): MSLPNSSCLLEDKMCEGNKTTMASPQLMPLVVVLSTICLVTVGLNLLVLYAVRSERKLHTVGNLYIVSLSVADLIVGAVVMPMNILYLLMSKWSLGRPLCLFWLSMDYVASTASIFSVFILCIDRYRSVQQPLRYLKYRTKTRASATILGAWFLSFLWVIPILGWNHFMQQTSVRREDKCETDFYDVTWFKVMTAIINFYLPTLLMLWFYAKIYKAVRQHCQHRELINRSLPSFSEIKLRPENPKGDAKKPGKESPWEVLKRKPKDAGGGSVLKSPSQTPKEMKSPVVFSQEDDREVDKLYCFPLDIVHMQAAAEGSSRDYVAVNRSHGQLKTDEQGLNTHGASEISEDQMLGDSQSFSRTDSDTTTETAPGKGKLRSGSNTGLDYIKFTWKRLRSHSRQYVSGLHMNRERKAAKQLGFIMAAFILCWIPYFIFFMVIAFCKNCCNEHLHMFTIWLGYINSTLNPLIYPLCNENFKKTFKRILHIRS

Structure (SMILES) | inhibition at 1 µM [1] [%] | inhibition at 1 µM [2] [%] | inhibition at 1 µM [3] [%] | inhibition at 1 µM [4] [%]
Cc1ccc2c(c1)c1c(n2CC(O)c2ccncc2)CCN(C)CC1 (stereo not shown) [Compound No. 43, 2-(2,3,4,5-tetrahydro-3,9-dimethylazepino[4,5-b]indol-6(1H)-yl)-1-(pyridin-4-yl)ethanol] | 100 | 4 | 91 | 78
Cc1ccc2c(c1)c1c(n2CC(=O)Nc2ccc(F)cc2)CCN(C)CC1 [Compound No. 44, N-(4-fluorophenyl)-2-(2,3,4,5-tetrahydro-3,9-dimethylazepino[4,5-b]indol-6(1H)-yl)acetamide] | 16 | -8 | 41 | 1
Cc1ccc2c(c1)c1c(n2CC(=O)N2CCCC2)CCN(C)CC1 [Compound No. 45, 2-(2,3,4,5-tetrahydro-3,9-dimethylazepino[4,5-b]indol-6(1H)-yl)-1-(pyrrolidin-1-yl)ethanone] | 13 | -6 | 16 | -9
Cc1ccc(CCn2c3c(c4cc(Cl)ccc42)CCN(C)CC3)cc1 [Compound No. 46, 9-chloro-3-methyl-6-(4-methylphenethyl)-1,2,3,4,5,6-hexahydroazepino[4,5-b]indole] | 108 | 79 | 98 | 100
COc1ccc(C(O)Cn2c3c(c4cc(Cl)ccc42)CCN(C)CC3)cc1 (stereo not shown) [Compound No. 47, 2-(9-chloro-2,3,4,5-tetrahydro-3-methylazepino[4,5-b]indol-6(1H)-yl)-1-(4-methoxyphenyl)ethanol] | 100 | 45 | 98 | 97
COc1ccc(C(O)Cn2c3c(c4cc(C)ccc42)CCN(C)CC3)cc1 (stereo not shown) [Compound No. 48, 2-(2,3,4,5-tetrahydro-3,9-dimethylazepino[4,5-b]indol-6(1H)-yl)-1-(4-methoxyphenyl) ethanol] | 98 | 31 | 98 | 98
COc1ccc(C(O)Cn2c3c(c4cc(Cl)ccc42)CCN(C)CC3)c(F)c1 (stereo not shown) [Compound No. 49, 2-(9-chloro-2,3,4,5-tetrahydro-3-methylazepino[4,5-b]indol-6(1H)-yl)-1-(2-fluoro-4-methoxyphenyl) ethanol] | 94 | 32 | 98 | 96
COc1ccc(C(O)Cn2c3c(c4cc(C)ccc42)CCN(C)CC3)c(F)c1 (stereo not shown) [Compound No. 50, 1-(2-fluoro-4-methoxyphenyl)-2-(2,3,4,5-tetrahydro-3,9-dimethylazepino[4,5-b]indol-6(1H)-yl)ethanol] | 98 | 34 | 95 | 94
CN1CCc2c(n(CC(O)c3ccc(F)cc3)c3ccc(Cl)cc23)CC1 (stereo not shown) [Compound No. 51, 2-(9-chloro-2,3,4,5-tetrahydro-3-methylazepino[4,5-b]indol-6(1H)-yl)-1-(4-fluorophenyl) ethanol] | 102 | 30 | 98 | 98
Cc1ccc2c(c1)c1c(n2CC(O)c2ccc(F)cc2)CCN(C)CC1 (stereo not shown) [Compound No. 52, 1-(4-fluorophenyl)-2-(2,3,4,5-tetrahydro-3,9-dimethylazepino[4,5-b]indol-6(1H)-yl)ethanol] | 96 | 20 | 96 | 97
CN1CCc2c(n(CC(=O)N3CCCC3)c3ccc(Cl)cc23)CC1 [Compound No. 53, 2-(9-chloro-2,3,4,5-tetrahydro-3-methylazepino[4,5-b]indol-6(1H)-yl)-1-(pyrrolidin-1-yl)ethanone] | 14 | 2 | 32 | 1
Cc1ccc2c(c1)c1c(n2CC(=O)NC(C)C)CCN(C)CC1 [Compound No. 54, 2-(2,3,4,5-tetrahydro-3,9-dimethylazepino[4,5-b]indol-6(1H)-yl)-N-isopropylacetamide] | 18 | 6 | -2 | 5
Cc1ccc2c(c1)c1c(n2CC(=O)OC2CCCC2)CCN(C)CC1 [Compound No. 55, Cyclopentyl-2-(2,3,4,5-tetrahydro-3,9-dimethylazepino[4,5-b]indol-6(1H)-yl)acetate] | 15 | 6 | 32 | 12
CN1CCc2c(n(CCc3ccccc3)c3ccc(Cl)cc23)CC1 [Compound No. 56, 9-chloro-1,2,3,4,5,6-hexahydro-3-methyl-6-phenethylazepino[4,5-b]indole] | 105 | 62 | 95 | 95
CN1CCc2c(n(CC(=O)N3CCCCC3)c3ccc(Cl)cc23)CC1 [Compound No. 57, 2-(9-chloro-2,3,4,5-tetrahydro-3-methylazepino[4,5-b]indol-6(1H)-yl)-1-(piperidin-1-yl)ethanone] | 8 | 10 | 65 | -1
CN1CCc2c(n(CC(O)c3ccc(F)c(F)c3)c3ccc(Cl)cc23)CC1 (stereo not shown) [Compound No. 58, 2-(9-chloro-2,3,4,5-tetrahydro-3-methylazepino[4,5-b]indol-6(1H)-yl)-1-(3,4-difluorophenyl)ethanol] | 98 | 47 | 16 | 95
Cc1ccc2c(c1)c1c(n2CC(O)c2ccc(F)cc2F)CCN(C)CC1 (stereo not shown) [Compound No. 59, 1-(2,4-difluorophenyl)-2-(2,3,4,5-tetrahydro-3,9-dimethylazepino[4,5-b]indol-6(1H)-yl)ethanol] | 60 | 20 | -3 | 89
CN1CCc2c(n(CC(=O)N3CCOCC3)c3ccc(Cl)cc23)CC1 [Compound No. 60, 2-(9-chloro-2,3,4,5-tetrahydro-3-methylazepino[4,5-b]indol-6(1H)-yl)-1-morpholinoethanone] | 2 | -9 | -5 | 7
CN1CCc2c(n(CCc3ccccc3F)c3ccc(Cl)cc23)CC1 [Compound No. 61, 6-(2-fluorophenethyl)-9-chloro-1,2,3,4,5,6-hexahydro-3-methylazepino[4,5-b]indole] | 97 | 1 | 89 | 23
